ChEMBL document CHEMBL3286266, “Development of novel benzomorpholine class of diacylglycerol acyltransferase I inhibitors” (ACS Med Chem Lett, 2014)
In brackets after ≈: the same amount, converted by molar mass.

Legend:
[1] = AUC in mouse at 10 mg/kg; format: ADME, organism-based; parameters: dose 10 mg/kg; settings: plasma
[2] = target: T1, Diacylglycerol O-acyltransferase 1 (Mus musculus, UniProt Q9Z2A7); assay: Inhibition of mouse DGAT1 expressed in Sf9 insect cells using 1,2-dioleoyl-sn-glycerol and [14C]-palmitoyl-CoA substrate by scintillation counting analysis
T1 sequence (Q9Z2A7 whole entry): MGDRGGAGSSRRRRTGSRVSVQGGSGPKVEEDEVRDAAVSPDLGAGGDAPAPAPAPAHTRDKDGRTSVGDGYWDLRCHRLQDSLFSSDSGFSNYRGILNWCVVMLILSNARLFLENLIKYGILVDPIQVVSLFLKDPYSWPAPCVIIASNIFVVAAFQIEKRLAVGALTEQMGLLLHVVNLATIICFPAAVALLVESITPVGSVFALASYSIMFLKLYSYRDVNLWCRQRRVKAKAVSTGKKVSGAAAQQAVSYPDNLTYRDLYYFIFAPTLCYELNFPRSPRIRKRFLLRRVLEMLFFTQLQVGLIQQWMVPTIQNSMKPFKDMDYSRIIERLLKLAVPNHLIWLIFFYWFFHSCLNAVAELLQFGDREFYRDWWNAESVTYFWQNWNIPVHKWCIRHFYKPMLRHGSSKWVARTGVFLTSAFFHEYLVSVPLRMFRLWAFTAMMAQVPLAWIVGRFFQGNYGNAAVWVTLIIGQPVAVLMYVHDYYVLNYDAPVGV

[3] = tested on: Mus musculus; assay: Reduction in triglycerides level in mouse at 10 mg/kg, po after 2 hrs by postprandial triglyceride assay; format: functional
[4] = target: T2, Diacylglycerol O-acyltransferase 1 (Homo sapiens, UniProt O75907); assay: Inhibition of human DGAT1 expressed in Sf9 insect cells using 1,2-dioleoyl-sn-glycerol and [14C]-palmitoyl-CoA substrate by scintillation counting analysis
T2 sequence (O75907 whole entry): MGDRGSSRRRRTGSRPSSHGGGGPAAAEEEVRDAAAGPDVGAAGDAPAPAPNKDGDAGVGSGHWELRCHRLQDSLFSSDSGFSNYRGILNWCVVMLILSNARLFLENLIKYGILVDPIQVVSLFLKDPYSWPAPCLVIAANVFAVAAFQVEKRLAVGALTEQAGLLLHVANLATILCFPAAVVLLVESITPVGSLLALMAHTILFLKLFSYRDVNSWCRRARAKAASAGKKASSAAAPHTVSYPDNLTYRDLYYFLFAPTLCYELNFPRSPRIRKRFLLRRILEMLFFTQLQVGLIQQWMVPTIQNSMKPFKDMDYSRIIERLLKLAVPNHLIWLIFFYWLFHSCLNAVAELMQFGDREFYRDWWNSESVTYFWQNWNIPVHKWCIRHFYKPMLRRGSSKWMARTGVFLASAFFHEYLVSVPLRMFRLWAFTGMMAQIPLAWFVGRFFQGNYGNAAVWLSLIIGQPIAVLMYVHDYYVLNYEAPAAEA

[5] = tested on: Mus musculus; assay: Reduction in triglycerides level in mouse at 3 mg/kg, po after 2 hrs by postprandial triglyceride assay; format: functional
[6] = Permeability in human Caco2 cells; format: ADME, cell-based; settings: Caco-2, read-out: permeability
[7] = target: T3, CYP1A1 (Homo sapiens, UniProt P04798); assay: Induction of CYP1A1 (unknown origin) at 30 uM relative to control; format: ADME; settings: read-out: FC
T3 sequence (P04798 whole entry): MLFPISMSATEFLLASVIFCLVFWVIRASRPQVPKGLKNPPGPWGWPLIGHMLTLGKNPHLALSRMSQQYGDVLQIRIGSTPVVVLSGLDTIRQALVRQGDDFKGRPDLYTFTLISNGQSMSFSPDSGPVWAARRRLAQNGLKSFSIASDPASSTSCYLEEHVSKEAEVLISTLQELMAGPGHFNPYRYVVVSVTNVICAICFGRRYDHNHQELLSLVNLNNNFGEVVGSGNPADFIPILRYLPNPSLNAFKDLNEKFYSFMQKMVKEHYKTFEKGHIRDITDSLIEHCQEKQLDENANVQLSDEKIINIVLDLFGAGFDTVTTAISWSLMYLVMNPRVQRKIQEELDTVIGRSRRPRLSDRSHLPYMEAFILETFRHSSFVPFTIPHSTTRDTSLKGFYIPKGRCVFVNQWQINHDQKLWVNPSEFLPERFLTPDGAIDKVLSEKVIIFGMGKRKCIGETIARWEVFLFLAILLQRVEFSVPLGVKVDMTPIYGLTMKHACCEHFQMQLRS

[8] = Clearance in human liver hepatocytes measured per million cells; format: ADME, cell-based, Hepatocyte; settings: read-out: CLH
[9] = Clearance in rat liver hepatocytes measured per million cells; format: ADME, cell-based, Hepatocyte; settings: read-out: CLH
[10] = organism: Homo sapiens; assay: Selectivity for human DGAT1 over human DGAT2
[11] = organism: Homo sapiens; assay: Selectivity for human DGAT1 over human ACAT
[12] = Solubility of the compound; format: physicochemical
[13] = target: T4, Sterol O-acyltransferase 2 (Homo sapiens, UniProt O75908); assay: Inhibition of human ACAT2 expressed in Sf9 insect cells using [14C]-oleoyl-CoA by scintillation counting analysis
T4 sequence (O75908 whole entry): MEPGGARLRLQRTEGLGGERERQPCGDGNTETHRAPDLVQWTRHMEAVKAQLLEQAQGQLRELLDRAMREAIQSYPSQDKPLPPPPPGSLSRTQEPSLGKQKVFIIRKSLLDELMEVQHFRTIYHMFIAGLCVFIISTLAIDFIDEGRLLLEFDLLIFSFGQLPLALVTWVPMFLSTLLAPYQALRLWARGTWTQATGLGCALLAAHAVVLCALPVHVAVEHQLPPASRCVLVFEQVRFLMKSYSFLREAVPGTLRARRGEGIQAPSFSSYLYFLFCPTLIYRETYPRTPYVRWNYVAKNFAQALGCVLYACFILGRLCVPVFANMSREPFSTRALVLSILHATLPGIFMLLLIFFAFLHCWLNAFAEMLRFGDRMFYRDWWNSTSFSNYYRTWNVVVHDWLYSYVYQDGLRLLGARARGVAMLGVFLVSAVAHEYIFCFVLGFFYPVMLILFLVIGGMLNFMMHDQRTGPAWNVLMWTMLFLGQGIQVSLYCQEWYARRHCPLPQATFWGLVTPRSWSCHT

SMILES | IC50 [2] [nM] | IC50 [4] [nM] | also measured
CCC1CN(C(=O)Nc2ccccc2)c2ccc(-c3ccc([C@H]4CC[C@H](CC(=O)O)CC4)cc3)cc2O1 (stereo partly specified) | 45 |  | AUC [1]: 63 µM·h; inhibition in vivo at 10 mg/kg [3]: 88%
O=C(Nc1ccccc1)N1CCOc2cc(-c3ccc([C@H]4CC[C@H](Cc5nnn[nH]5)CC4)cc3)ccc21 | 170 |  | inhibition in vivo at 10 mg/kg [3]: 9%
O=C(C[C@H]1CC[C@H](c2ccc(-c3ccc4c(c3)OCCN4C(=O)Nc3ccccc3)cc2)CC1)NO | 920 |  | 
CCCC1CN(C(=O)Nc2ccccc2)c2ccc(-c3ccc([C@H]4CC[C@H](CC(=O)O)CC4)cc3)cc2O1 (stereo partly specified) | 160 |  | 
O=C(O)C[C@H]1CC[C@H](c2ccc(-c3ccc4c(c3)OCCN4C(=O)NCCCCc3ccccc3)cc2)CC1 | 36 |  | inhibition in vivo at 10 mg/kg [3]: 23%
CCC1CN(C(=O)Nc2ccccc2)c2ccc(-c3ccc(OCC4(C(=O)O)CCC4)nc3)cc2O1 (stereo unspecified) | 110 |  | 
C[C@H]1CN(C(=O)Nc2ccccc2)c2ccc(-c3ccc([C@H]4CC[C@H](CC(=O)O)CC4)cc3)cc2O1 | 360 | 530 | 
O=C(O)C[C@H]1CC[C@@H](c2ccc(-c3ccc4c(c3)OCCN4C(=O)Nc3ccccc3)cc2)CC1 | 45 | 52 | inhibition in vivo at 3 mg/kg [5]: 2%
O=C(O)C[C@H]1CC[C@H](c2ccc(-c3cccc4c3OCCN4C(=O)Nc3ccccc3)cc2)CC1 | > 10000 | > 10000 | 
O=C(O)C[C@H]1CC[C@H](c2ccc(-c3ccc4c(c3)OCCN4C(=O)Nc3ccccc3C(=O)O)cc2)CC1 | > 10000 | > 10000 | 
O=C(O)C[C@H]1CC[C@H](c2ccc(-c3ccc4c(c3)OCCN4C(=O)Nc3ccccc3C(F)(F)F)cc2)CC1 | 16 |  | 
O=C(O)C[C@H]1CC[C@H](c2ccc(-c3ccc4c(c3)N(C(=O)Nc3ccccc3)CCO4)cc2)CC1 | > 10000 | > 10000 | 
Nc1ccccc1NC(=O)N1CCOc2cc(-c3ccc([C@H]4CC[C@H](CC(=O)O)CC4)cc3)ccc21 | 5200 |  | 
CCc1ccccc1NC(=O)N1C[C@H](C)Oc2cc(-c3ccc([C@H]4CC[C@H](CC(=O)O)CC4)cc3)ccc21 | 53 | 85 | inhibition in vivo at 3 mg/kg [5]: 46%
O=C(O)C[C@H]1CC[C@H](c2ccc(-c3ccc4c(c3)OCCN4C(=O)NCc3ccccc3)cc2)CC1 | 110 |  | 
CC(C(=O)O)[C@H]1CC[C@H](c2ccc(-c3ccc4c(c3)OCCN4C(=O)Nc3ccccc3)cc2)CC1 (stereo partly specified) | 200 |  | 
CCc1ccccc1NC(=O)N1CCOc2cc(-c3ccc([C@H]4CC[C@H](CC(=O)O)CC4)cc3)ccc21 | 37 |  | 
O=C(O)C[C@H]1CC[C@H](c2ccc(-c3ccc4c(c3)OCCN4S(=O)(=O)Cc3ccccc3)cc2)CC1 | > 10000 | > 10000 | 
CC(C)C1CN(C(=O)Nc2ccccc2)c2ccc(-c3ccc([C@H]4CC[C@H](CC(=O)O)CC4)cc3)cc2O1 (stereo partly specified) | 300 |  | 

SMILES | IC50 [2] [nM] | IC50 [4] [nM] | also measured
CCc1ccccc1NC(=O)N1CC(C)Oc2cc(-c3ccc([C@H]4CC[C@H](CC(=O)O)CC4)cc3)ccc21 (stereo partly specified) | 50 | 110 | inhibition in vivo at 3 mg/kg [5]: 92%
CC(C)c1ccccc1NC(=O)N1CCOc2cc(-c3ccc([C@H]4CC[C@H](CC(=O)O)CC4)cc3)ccc21 | 69 |  | 
O=C(O)C[C@H]1CC[C@H](c2ccc(-c3cnc4c(c3)OCCN4C(=O)Nc3ccccc3)cc2)CC1 | > 10000 | > 10000 | 
CC1COc2cc(-c3ccc([C@H]4CC[C@H](CC(=O)O)CC4)cc3)ccc2N1C(=O)Nc1ccccc1 (stereo partly specified) | 630 |  | 
CCC1CN(C(=O)Nc2ccccc2)c2ccc(-c3ccc(OC[C@H]4C[C@@H]4C(=O)O)nc3)cc2O1 (relative stereo) | 210 |  | 
O=C(O)C[C@H]1CC[C@H](c2ccc(-c3ccc4c(c3)OCCN4C(=O)NC3CCCCC3)cc2)CC1 | 160 |  | 
CC1Oc2cc(-c3ccc([C@H]4CC[C@H](CC(=O)O)CC4)cc3)ccc2N(C(=O)Nc2ccccc2)C1=O (stereo partly specified) | > 10000 | > 10000 | 
O=C(O)C[C@H]1CC[C@H](c2ccc(-c3ccc4c(c3)OCCN4C(=O)Nc3cc(C(F)(F)F)ccc3F)cc2)CC1 | 1200 |  | 
CCOc1ccc(NC(=O)N2CCOc3cc(-c4ccc([C@H]5CC[C@H](CC(=O)O)CC5)cc4)ccc32)cc1 | 34 |  | 
CCC1CN(C(=O)Nc2ccccc2)c2ccc(-c3ccc(OCC4(C(=O)O)CC4)nc3)cc2O1 (stereo unspecified) | 90 |  | 
O=C(O)C[C@H]1CC[C@H](c2ccc(-c3ccc4c(ccn4C(=O)Nc4ccccc4)c3)cc2)CC1 |  |  | Papp [6]: 17 ×10⁻⁶ cm/s; fold induction at 30 µM [7]: 3; hepatocyte CLint [8]: 7.6 µL/min/1e6 cells; hepatocyte CLint [9]: 3.9 µL/min/1e6 cells; Selectivity ratio [10]: 100; inhibition in vivo at 10 mg/kg [3]: 45%; Selectivity ratio [11]: 100; solubility [12]: 20 µM (≈ 9.05 µg/mL)
O=C(O)C[C@H]1CC[C@H](c2ccc(-c3ccc4c(c3)OCCN4c3nc4ccccc4o3)cc2)CC1 | > 10000 | > 10000 | 
O=C(O)[C@@H]1CCC[C@H]1C(=O)c1ccc(-c2ccc3c(c2)OCCN3C(=O)Nc2ccccc2)cc1 | 830 |  | 
O=C(O)C[C@H]1CC[C@H](c2ccc(-c3ccc4c(c3)OCCN4C(=O)Cc3ccccc3)cc2)CC1 | 110 |  | 
CC1CN(C(=O)Nc2ccccc2)c2ccc(-c3ccc([C@H]4CC[C@H](CC(=O)O)CC4)cc3)cc2O1 (stereo partly specified) | 33 | 91 | IC50 [13]: 5000 nM; AUC [1]: 79 µM·h; inhibition in vivo at 10 mg/kg [3]: 85%
CCC1CN(C(=O)Nc2ccccc2)c2ccc(-c3cnc(OCC(C)(C)C(=O)O)nc3)cc2O1 (stereo unspecified) | 310 |  | 
O=C(O)C[C@H]1CC[C@H](c2ccc(-c3ccc4c(n3)OCCN4C(=O)Nc3ccccc3)cc2)CC1 | 550 |  | 
CS(=O)(=O)NC(=O)C[C@H]1CC[C@H](c2ccc(-c3ccc4c(c3)OCCN4C(=O)Nc3ccccc3)cc2)CC1 | 7300 |  | 
